Assay results taken from US9452990B2, “Complement pathway modulators and uses thereof” (NOVARTIS AG, priority 2012, dated 2016).
Structures can show the parent of a compound that is named as a salt.

Molecular target: human complement factor B (CVF-Bb complex) (Homo sapiens (Human), UniProt P00751)
Assay: Human Complement Factor B ELISA Assay
Format: biochemical
Conditions: not given
Method: Human Complement Factor B ELISA Assay
CVF-Bb complex prepared from purified cobra venom factor (1 μM), recombinant human complement factor B (expressed in drosophila cells and purified using standard methods) and human complement factor D (expressed in E. Coli, refolded and purified using standard methods). CVF-Bb complex at 3 nM concentration was incubated with test compound at various concentrations for 1 hour at room temperature in PBS pH 7.4 containing 10 mM MgCl2 and 0.05% (w/v) CHAPS. Human complement C3 substrate purified from plasma was added to a final concentration of 1 μM. After 1 hour incubation at room temperature, the enzyme reaction was stopped by addition of a cocktail of concentrated pan-protease inhibitors. The product of the reaction, C3a, was quantified by means of an enzyme-linked-immunosorbent assay. IC50 values were calculated from percentage of inhibition of CVF-Bb activity as a function of test compound concentration.

With `COc1cc2c(N)nc(N3CCN(C(=O)C[C@@H](N)c4ccco4)CC3)nc2c(F)c1OC` [Example 34, (R)-3-Amino-1-[4-(4-amino-8-fluoro-6,7-dimethoxy-quinazolin-2-yl)-piperazin-1-yl]-3-furan-2-yl-propan-1-one hydrochloride] as the compound, how does the IC50 read?
Its IC50 is 90 nM.

With `COc1cc2c(N)nc(N3CCN(C(=O)C[C@@H](N)c4ccoc4)CC3)nc2c(F)c1OC` [Example 35, (R)-3-Amino-1-[4-(4-amino-8-fluoro-6,7-dimethoxy-quinazolin-2-yl)piperazin-1-yl]-3-furan-3-yl-propan-1-one hydrochloride] as the compound, how does the IC50 read?
Its IC50 is 310 nM.

For `COc1cc2c(N)nc(N3CCN(C(=O)C[C@@H](N)c4cccs4)CC3)nc2c(F)c1OC` [Example 36, (R)-3-Amino-1-[4-(4-amino-8-fluoro-6,7-dimethoxy-quinazolin-2-yl)-piperazin-1-yl]-3-thiophen-2-yl-propan-1-one hydrochloride], which IC50 is on record?
The IC50 was 190 nM.

Which IC50 does the source give for `C#Cc1ccc([C@H](N)CC(=O)N2CCN(c3nc(N)c4cc(OC)c(OC)c(F)c4n3)CC2)cc1` [Example 42, (R)-3-Amino-1-[4-(4-amino-8-fluoro-6,7-dimethoxy-quinazolin-2-yl)-piperazin-1-yl]-3-(4-ethynyl-phenyl)-propan-1-one hydrochloride] here?
The IC50 was 510 nM.

`COc1cc2c(N)nc(N3CCN(C(=O)C[C@@H](N)c4ccc(C#N)cc4)CC3)nc2c(F)c1OC` [Example 44, 4-{(R)-1-Amino-3-[4-(4-amino-8-fluoro-6,7-dimethoxy-quinazolin-2-yl)piperazin-1-yl]-3-oxo-propyl}-benzonitrile hydrochloride] was tested. Which IC50 did it give?
Its IC50 is 10 nM.

Which IC50 does the source give for `COc1cc2c(N)nc(N3CCN(C(=O)C[C@@H](N)c4ccc(Cl)cc4)CC3)nc2c(F)c1OC` [Example 48, (R)-3-Amino-1-[4-(4-amino-8-fluoro-6,7-dimethoxy-quinazolin-2-yl)-piperazin-1-yl]-3-(4-chloro-phenyl)-propan-1-one hydrochloride] here?
The IC50 was 90 nM.

With `COc1cc2c(N)nc(N3CCN(C(=O)C[C@@H](N)c4ccc(Br)cc4)CC3)nc2c(F)c1OC` [Example 49, (R)-3-Amino-1-[4-(4-amino-8-fluoro-6,7-dimethoxy-quinazolin-2-yl)-piperazin-1-yl]-3-(4-bromo-phenyl)-propan-1-one hydrochloride] as the compound, how does the IC50 read?
The IC50 was 60 nM.

How did the IC50 turn out when `COc1cc2c(N)nc(N3CCN(C(=O)C[C@@H](N)c4ccc(F)cc4F)CC3)nc2c(F)c1OC` [Example 50, (R)-3-Amino-1-[4-(4-amino-8-fluoro-6,7-dimethoxy-quinazolin-2-yl)-piperazin-1-yl]-3-(2,4-difluoro-phenyl)-propan-1-one hydrochloride] was run?
The IC50 was 450 nM.

For `COc1cc2c(N)nc(N3CCN(C(=O)C[C@@H](N)c4ccc(F)c(F)c4)CC3)nc2c(F)c1OC` [Example 51, (R)-3-Amino-1-[4-(4-amino-8-fluoro-6,7-dimethoxy-quinazolin-2-yl)piperazin-1-yl]-3-(3,4-difluoro-phenyl)-propan-1-one hydrochloride], which IC50 is on record?
Its IC50 is 180 nM.

`COc1cc2c(N)nc(N3CCN(C(=O)C[C@@H](N)c4ccc(F)c(Cl)c4)CC3)nc2c(F)c1OC` [Example 52, (R)-3-Amino-1-[4-(4-amino-8-fluoro-6,7-dimethoxy-quinazolin-2-yl)-piperazin-1-yl]-3-(3-chloro-4-fluoro-phenyl)-propan-1-one hydrochloride] was tested. Which IC50 did it give?
The IC50 was 110 nM.

`COc1cc2c(N)nc(N3CCN(C(=O)C[C@@H](N)c4ccc(C(F)F)cc4)CC3)nc2c(F)c1OC` [Example 53, (R)-3-Amino-1-[4-(4-amino-8-fluoro-6,7-dimethoxy-quinazolin-2-yl)piperazin-1-yl]-3-(4-difluoromethyl-phenyl)-propan-1-one hydrochloride] was tested. Which IC50 did it give?
The IC50 was 50 nM.

Same assay, conditions: CVF-Bb complex 3 nM, 1 hour preincubation with compound at room temperature, human C3 substrate 1 μM, C3a quantified by ELISA; read-out: Factor B IC50

For `CCC[C@H]1CN(C(=O)c2cc3cc(C#N)ccc3[nH]2)CCN1c1nc(N)c2cc(OC)c(OC)c(F)c2n1` [Example 26, 2-[(S)-4-(4-Amino-8-fluoro-6,7-dimethoxy-quinazolin-2-yl)-3-propyl-piperazine-1-carbonyl]-1H-indole-5-carbonitrile], which IC50 is on record?
The IC50 was 11 nM.

How did the IC50 turn out when `CCC[C@H]1CN(C(=O)c2cc3cc(F)ccc3[nH]2)CCN1c1nc(N)c2cc(OC)c(OC)c(F)c2n1` [Example 27, [(S)-4-(4-Amino-8-fluoro-6,7-dimethoxy-quinazolin-2-yl)-3-propyl-piperazin-1-yl]-(5-fluoro-1H-indol-2-yl)-methanone] was run?
The IC50 was 280 nM.

How did the IC50 turn out when `COc1cc2c(N)nc(N3CCN(C(=O)c4cc5cc(C#N)ccc5[nH]4)C[C@@H]3c3ccccc3)nc2c(F)c1OC` [Example 28, 2-[(S)-4-(4-Amino-8-fluoro-6,7-dimethoxy-quinazolin-2-yl)-3-phenyl-piperazine-1-carbonyl]-1H-indole-5-carbonitrile] was run?
Its IC50 is 5 nM.

With `COc1cc2c(N)nc(N3CCN(C(=O)c4cc5cc(F)ccc5[nH]4)C[C@@H]3c3ccccc3)nc2c(F)c1OC` [Example 29, (S)-(4-(4-amino-8-fluoro-6,7-dimethoxyquinazolin-2-yl)-3-phenylpiperazin-1-yl)(5-fluoro-1H-indol-2-yl)methanone] as the compound, how does the IC50 read?
The IC50 was 14 nM.

`COCCOc1c(OC)cc2c(N)nc(N3CCN(C(=O)c4cc5cc(Cl)ccc5[nH]4)C[C@@H]3C)nc2c1F` [Example 30, {(S)-4-[4-Amino-8-fluoro-6-methoxy-7-(2-methoxy-ethoxy)-quinazolin-2-yl]-3-methyl-piperazin-1-yl}-(5-chloro-1H-indol-2-yl)-methanone] was tested. Which IC50 did it give?
Its IC50 is 70 nM.

How did the IC50 turn out when `C#CC[C@H](N)CC(=O)N1CCN(c2nc(N)c3cc(OC)c(OC)c(F)c3n2)CC1` [Example 31, (S)-3-Amino-1-[4-(4-amino-8-fluoro-6,7-dimethoxy-quinazolin-2-yl)-piperazin-1-yl]-hex-5-yn-1-one] was run?
The IC50 was 1040 nM.

With `COc1cc2c(N)nc(N3CCN(C(=O)C[C@@H](N)C4CCCC4)CC3)nc2c(F)c1OC` [Example 32, (R)-3-Amino-1-[4-(4-amino-8-fluoro-6,7-dimethoxy-quinazolin-2-yl)-piperazin-1-yl]-3-cyclopentyl-propan-1-one] as the compound, how does the IC50 read?
Its IC50 is 100 nM.

Which IC50 does the source give for `COc1cc2c(N)nc(N3CCN(C(=O)C[C@@H](N)CC(C)C)CC3)nc2c(F)c1OC` [Example 33, (S)-3-Amino-1-[4-(4-amino-8-fluoro-6,7-dimethoxy-quinazolin-2-yl)-piperazin-1-yl]-5-methyl-hexan-1-one] here?
Its IC50 is 680 nM.

Which IC50 does the source give for `COc1cc2c(N)nc(N3CCN(C(=O)C[C@@H](N)c4ccsc4)CC3)nc2c(F)c1OC` [Example 37, (R)-3-Amino-1-[4-(4-amino-8-fluoro-6,7-dimethoxy-quinazolin-2-yl)-piperazin-1-yl]-3-thiophen-3-yl-propan-1-one] here?
The IC50 was 40 nM.

For `COc1cc2c(N)nc(N3CCN(C(=O)C[C@@H](N)c4ccc(C)s4)CC3)nc2c(F)c1OC` [Example 38, (R)-3-Amino-1-[4-(4-amino-8-fluoro-6,7-dimethoxy-quinazolin-2-yl)piperazin-1-yl]-3-(5-methyl-thiophen-2-yl)-propan-1-one], which IC50 is on record?
The IC50 was 180 nM.

With `COc1cc2c(N)nc(N3CCN(C(=O)C[C@@H](N)c4ccccc4)CC3)nc2c(F)c1OC` [Example 39, (R)-3-Amino-1-[4-(4-amino-8-fluoro-6,7-dimethoxy-quinazolin-2-yl)-piperazin-1-yl]-3-phenyl-propan-1-one] as the compound, how does the IC50 read?
Its IC50 is 230 nM.

For `COc1cc2c(N)nc(N3CCN(C(=O)C[C@@H](N)c4cccc(C)c4)CC3)nc2c(F)c1OC` [Example 40, (R)-3-Amino-1-[4-(4-amino-8-fluoro-6,7-dimethoxy-quinazolin-2-yl)-piperazin-1-yl]-3-m-tolyl-propan-1-one], which IC50 is on record?
Its IC50 is 220 nM.

How did the IC50 turn out when `COc1cc2c(N)nc(N3CCN(C(=O)C[C@@H](N)c4ccc(C)cc4)CC3)nc2c(F)c1OC` [Example 41, (R)-3-Amino-1-[4-(4-amino-8-fluoro-6,7-dimethoxy-quinazolin-2-yl)-piperazin-1-yl]-3-p-tolyl-propan-1-one] was run?
Its IC50 is 70 nM.

How did the IC50 turn out when `COc1cc2c(N)nc(N3CCN(C(=O)C[C@@H](N)c4cccc(C#N)c4)CC3)nc2c(F)c1OC` [Example 43, 3-{(R)-1-Amino-3-[4-(4-amino-8-fluoro-6,7-dimethoxy-quinazolin-2-yl)-piperazin-1-yl]-3-oxo-propyl}-benzonitrile] was run?
Its IC50 is 40 nM.

How did the IC50 turn out when `COc1cc2c(N)nc(N3CCN(C(=O)C[C@@H](N)c4cccc(F)c4)CC3)nc2c(F)c1OC` [Example 45, (R)-3-Amino-1-[4-(4-amino-8-fluoro-6,7-dimethoxy-quinazolin-2-yl)-piperazin-1-yl]-3-(3-fluoro-phenyl)-propan-1-one] was run?
The IC50 was 50 nM.

For `COc1cc2c(N)nc(N3CCN(C(=O)C[C@@H](N)c4ccc(F)cc4)CC3)nc2c(F)c1OC` [Example 46, (R)-3-Amino-1-[4-(4-amino-8-fluoro-6,7-dimethoxy-quinazolin-2-yl)-piperazin-1-yl]-3-(4-fluoro-phenyl)-propan-1-one], which IC50 is on record?
Its IC50 is 40 nM.

With `COc1cc2c(N)nc(N3CCN(C(=O)C[C@@H](N)c4cccc(Cl)c4)CC3)nc2c(F)c1OC` [Example 47, (R)-3-Amino-1-[4-(4-amino-8-fluoro-6,7-dimethoxy-quinazolin-2-yl)-piperazin-1-yl]-3-(3-chloro-phenyl)-propan-1-one] as the compound, how does the IC50 read?
The IC50 was 110 nM.

How did the IC50 turn out when `COc1cc2c(N)nc(N3CCN(C(=O)C[C@@H](N)c4cccc(C(F)(F)F)c4)CC3)nc2c(F)c1OC` [Example 54, (R)-3-Amino-1-[4-(4-amino-8-fluoro-6,7-dimethoxy-quinazolin-2-yl)-piperazin-1-yl]-3-(3-trifluoromethyl-phenyl)-propan-1-one] was run?
Its IC50 is 260 nM.
